# According to PubChem BioAssay (NCI):
#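 Interpolation was linear, between the two tested concentrations surrounding the appropriate level; five concentrations were tested over 48 hours in 96-well plates. GI50 is the concentration that inhibits growth by half. Definition used: TGI = concentration required for complete inhibition of growth.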
# How the values were obtained:
# Experiment in all cases: NCI-60 cell line screen, 48 h
# BT-549 breast = test system: BT-549 breast
# SK-MEL-5 melanoma = test system: SK-MEL-5 melanoma
# SN12C renal = test system: SN12C renal
# A498 renal = test system: A498 renal
# OVCAR-3 ovarian = test system: OVCAR-3 ovarian
# EKVX NSCLC = test system: EKVX NSCLC
# SK-OV-3 ovarian = test system: SK-OV-3 ovarian
# SK-MEL-28 melanoma = test system: SK-MEL-28 melanoma
# HOP-92 NSCLC = test system: HOP-92 NSCLC
# PC-3 prostate = test system: PC-3 prostate
Compound,GI50 (BT-549 breast) [µM],TGI (BT-549 breast) [µM],GI50 (SK-MEL-5 melanoma) [µM],TGI (SK-MEL-5 melanoma) [µM],TGI (SN12C renal) [µM],GI50 (A498 renal) [µM],TGI (A498 renal) [µM],GI50 (OVCAR-3 ovarian) [µM],TGI (OVCAR-3 ovarian) [µM],GI50 (EKVX NSCLC) [µM],TGI (EKVX NSCLC) [µM],GI50 (SK-OV-3 ovarian) [µM],TGI (SK-OV-3 ovarian) [µM],GI50 (SK-MEL-28 melanoma) [µM],TGI (SK-MEL-28 melanoma) [µM],GI50 (HOP-92 NSCLC) [µM],TGI (HOP-92 NSCLC) [µM],GI50 (PC-3 prostate) [µM],TGI (PC-3 prostate) [µM],GI50 (SN12C renal) [µM]
NCCCN1CCN(CCCNc2nc3ccccc3c3[nH]c4ccccc4c23)CC1,2.12,5.72,1.14,2.53,1.05,1.62,3.93,0.659,4.58,1.31,6.22,6.7,41.4,0.888,2.32,0.346,2.1,0.437,2.98,–
CCOc1nccc2c1nc(-c1nonc1N)n2CC,> 25,> 25,> 25,> 25,> 25,24.5,> 25,> 25,> 25,> 25,> 25,> 25,> 25,> 25,> 25,1.17,> 25,> 25,> 25,> 25
CC(C)C[C@H](NC(=O)CCn1ccc2ncccc2c1=O)B(O)O,4.86,23.1,3.97,19.2,> 100,2.66,21.3,4.1,20.6,–,–,> 66,> 100,6.8,> 76.7,14.5,60.3,35.2,> 100,18.9
O=C(CNc1ccc2c(=S)c3ccccc3[nH]c2c1)Nc1ccccc1-c1ccccc1NC(=O)CNc1ccc2c(=S)c3ccccc3[nH]c2c1,–,56.7,–,35.3,53.7,–,55.6,–,55,–,65.6,–,48.5,–,41.2,–,51.2,–,> 49.8,–
Cc1cc(N(CCCNc2ccnc3cc(Cl)ccc23)Cc2ccc3c(c2)OCO3)nc(N2CCCCC2)n1,2.28,5.95,1.75,3.14,12,2.14,5.11,1.63,3.19,2.56,38,2.74,8.46,1.94,3.66,1.12,3.49,2.1,5.38,2.87
COc1ccc2c(c1)c(-c1ccc(-c3cn(C)c4ccc(OC)cc34)[nH]1)cn2C,2.09,5.3,4.2,14.4,10.9,10.9,49.1,–,–,1.73,3.74,3.19,20.9,3.18,12.4,2.58,7.21,1.58,5.71,2.77
COc1ccc(-c2cc(-c3cccc(NS(C)(=O)=O)c3)nc(N)c2C#N)cc1,0.127,12.3,0.113,4.92,25.1,0.116,54,0.0298,0.115,0.525,> 81.6,0.0879,1.57,0.18,47.2,3.38,48.7,0.0971,14.2,0.298
